Assay results: patent US11173151B2, “Substituted triazole derivatives and uses thereof” (BAYER AKTIENGESELLSCHAFT, priority 2017, dated 2021)
pIC50: −log10 of the molar value.

Columns and labels:
[1] = target: T1, human V2 receptor (Homo sapiens, UniProt P30518); experiment: Cellular in vitro assay for determining vasopressin receptor activity, V2 receptor cell line (CHO, CRE-luciferase); assay type: cell-based; settings: CHO cell line transfected with human V2 receptor; [Arg8]-vasopressin at EC50 concentration, 3 hours; read-out: IC50 hV2
T1 construct: expressed in transfected cells; host or cells: CHO K1 (ATCC) expressing firefly luciferase under a CRE-responsive promoter

[2] = target: T2, human V1a receptor (Homo sapiens, UniProt P37288); experiment: Cellular in vitro assay for determining vasopressin receptor activity, V1a receptor cell line (CHO, aequorin luminescence); assay type: cell-based; settings: for pIC50: CHO cell line transfected with human V1a receptor, [Arg]-vasopressin at EC50 concentration, read-out: IC50 hV1a; for ratio IC50 hV2/hV1a: selectivity ratio IC50 hV2 / IC50 hV1a
T2 construct: expressed in transfected cells; host or cells: CHO K1 (ATCC), also stably transfected with a modified aequorin
Outline: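 Luminescence from reconstituted aequorin, reporting intracellular calcium release, was measured immediately after adding [Arg]-vasopressin at EC50 concentration to CHO K1 cells pretreated 10 minutes with graded compound concentrations. Inhibition gave IC50 values.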

T1 sequence (P30518 whole entry): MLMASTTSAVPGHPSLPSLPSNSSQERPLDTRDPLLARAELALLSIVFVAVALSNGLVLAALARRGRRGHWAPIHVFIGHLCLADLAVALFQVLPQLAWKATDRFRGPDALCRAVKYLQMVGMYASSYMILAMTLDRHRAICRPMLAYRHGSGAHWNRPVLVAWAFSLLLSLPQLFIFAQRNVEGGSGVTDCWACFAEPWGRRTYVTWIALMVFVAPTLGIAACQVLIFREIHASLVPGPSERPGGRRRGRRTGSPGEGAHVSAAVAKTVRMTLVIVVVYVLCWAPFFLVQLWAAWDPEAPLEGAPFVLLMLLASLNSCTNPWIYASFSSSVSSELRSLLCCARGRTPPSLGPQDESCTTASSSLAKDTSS
T2 sequence (P37288 whole entry): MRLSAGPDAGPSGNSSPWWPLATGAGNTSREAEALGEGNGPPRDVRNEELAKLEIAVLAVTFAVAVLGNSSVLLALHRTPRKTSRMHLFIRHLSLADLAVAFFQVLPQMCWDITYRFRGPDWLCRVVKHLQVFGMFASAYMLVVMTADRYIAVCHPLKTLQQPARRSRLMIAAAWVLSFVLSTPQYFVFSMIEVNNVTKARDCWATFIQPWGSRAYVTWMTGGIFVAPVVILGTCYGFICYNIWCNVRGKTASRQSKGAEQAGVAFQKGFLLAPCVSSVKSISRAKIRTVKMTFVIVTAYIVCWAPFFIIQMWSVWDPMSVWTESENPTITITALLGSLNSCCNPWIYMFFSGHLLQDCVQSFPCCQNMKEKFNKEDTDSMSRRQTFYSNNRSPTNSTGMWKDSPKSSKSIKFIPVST

## O=C(NCCC(F)(F)F)c1ccccc1-n1cnc(Cn2nc(-c3ccc(Cl)cc3)n(C[C@H](O)C(F)(F)F)c2=O)n1 [Example 182, 2-[3-({3-(4-Chlorophenyl)-5-oxo-4-[(2S)-3,3,3-trifluoro-2-hydroxypropyl]-4,5-dihydro-1H-1,2,4-triazol-1-yl}methyl)-1H-1,2,4-triazol-1-yl]-N-(3,3,3-trifluoropropyl)benzamide]
[1]
  pIC50: 5.69
[2]
  pIC50: 7.62
  ratio IC50 hV2/hV1a: 85.4

## O=C(NCC1CS(=O)(=O)C1)c1ccccc1-n1cnc(Cn2nc(-c3ccc(Cl)cc3)n(C[C@H](O)C(F)(F)F)c2=O)n1 [Example 184, 2-[3-({3-(4-Chlorophenyl)-5-oxo-4-[(2S)-3,3,3-trifluoro-2-hydroxypropyl]-4,5-dihydro-1H-1,2,4-triazol-1-yl}methyl)-1H-1,2,4-triazol-1-yl]-N-[(1,1-dioxidothietan-3-yl)methyl]benzamide]
[1]
  pIC50: 5.51
[2]
  pIC50: 7.55
  ratio IC50 hV2/hV1a: 108.8

## O=C(NCCN1CCNC1=O)c1ccccc1-n1cnc(Cn2nc(-c3ccc(Cl)cc3)n(C[C@H](O)C(F)(F)F)c2=O)n1 [Example 185, 2-[3-({3-(4-Chlorophenyl)-5-oxo-4-[(2S)-3,3,3-trifluoro-2-hydroxypropyl]-4,5-dihydro-1H-1,2,4-triazol-1-yl}methyl)-1H-1,2,4-triazol-1-yl]-N-[2-(2-oxoimidazolidin-1-yl)ethyl]benzamide]
[1]
  pIC50: 5.75
[2]
  pIC50: 8.05
  ratio IC50 hV2/hV1a: 199.4

## CC(C)(N)CNC(=O)c1cc(Cl)ccc1-n1cnc(Cn2nc(-c3ccc(Cl)cc3)n(C[C@H](O)C(F)(F)F)c2=O)n1 [Example 186, N-(2-Amino-2-methylpropyl)-5-chloro-2-[3-({3-(4-chlorophenyl)-5-oxo-4-[(2S)-3,3,3-trifluoro-2-hydroxypropyl]-4,5-dihydro-1H-1,2,4-triazol-1-yl}methyl)-1H-1,2,4-triazol-1-yl]benzamide]
[1]
  pIC50: 6.62
[2]
  pIC50: 8.28
  ratio IC50 hV2/hV1a: 46.2

## CNC(=O)c1cc(Cl)ccc1-n1cnc(Cn2nc(-c3ccc(Cl)cc3)n(C[C@H](O)C(F)(F)F)c2=O)n1 [Example 187, 5-chloro-2-[3-({3-(4-Chlorophenyl)-5-oxo-4-[(2S)-3,3,3-trifluoro-2-hydroxypropyl]-4,5-dihydro-1H-1,2,4-triazol-1-yl}methyl)-1H-1,2,4-triazol-1-yl]-N-methylbenzamide]
[1]
  pIC50: 7.31
[2]
  pIC50: 7.91
  ratio IC50 hV2/hV1a: 3.9

## CC1(CNC(=O)c2ccccc2-n2cnc(Cn3nc(-c4ccc(Cl)cc4)n(C[C@H](O)C(F)(F)F)c3=O)n2)COC1 [Example 188, 2-[3-({3-(4-Chlorophenyl)-5-oxo-4-[(2S)-3,3,3-trifluoro-2-hydroxypropyl]-4,5-dihydro-1H-1,2,4-triazol-1-yl}ylmethyl)-1H-1,2,4-triazol-1-yl]-N-[(3-methyloxetan-3-yl)methyl]benzamide]
[1]
  pIC50: 6.25
[2]
  pIC50: 8.17
  ratio IC50 hV2/hV1a: 83.2

## NC(=O)C1CN(C(=O)c2ccccc2-n2cnc(Cn3nc(-c4ccc(Cl)cc4)n(C[C@H](O)C(F)(F)F)c3=O)n2)C1 [Example 189, 1-{2-[3-({3-(4-Chlorophenyl)-5-oxo-4-[(2S)-3,3,3-trifluoro-2-hydroxypropyl]-4,5-dihydro-1H-1,2,4-triazol-1-yl}methyl)-1H-1,2,4-triazol-1-yl]benzoyl}azetidine-3-carboxamide]
[1]
  pIC50: 5.44
[2]
  pIC50: 7.22
  ratio IC50 hV2/hV1a: 60.1

## O=C1NCC2(CN(C(=O)c3ccccc3-n3cnc(Cn4nc(-c5ccc(Cl)cc5)n(C[C@H](O)C(F)(F)F)c4=O)n3)C2)N1 [Example 190, 2-{2-[3-({3-(4-Chlorophenyl)-5-oxo-4-[(2S)-3,3,3-trifluoro-2-hydroxypropyl]-4,5-dihydro-1H-1,2,4-triazol-1-yl}methyl)-1H-1,2,4-triazol-1-yl]benzoyl}-2,5,7-triazaspiro[3.4]octan-6-one]
[1]
  pIC50: 5.15
[2]
  pIC50: 6.52
  ratio IC50 hV2/hV1a: 23.5

## NC(=O)[C@H]1CCCN1C(=O)c1ccccc1-n1cnc(Cn2nc(-c3ccc(Cl)cc3)n(C[C@H](O)C(F)(F)F)c2=O)n1 [Example 194, 1-{2-[3-({3-(4-Chlorophenyl)-5-oxo-4-[(2S)-3,3,3-trifluoro-2-hydroxypropyl]-4,5-dihydro-1H-1,2,4-triazol-1-yl}methyl)-1H-1,2,4-triazol-1-yl]benzoyl}-D-prolinamide]
[1]
  pIC50: 5.53
[2]
  pIC50: 7.20
  ratio IC50 hV2/hV1a: 46.5

## NC(=O)[C@@H]1CCCN1C(=O)c1ccccc1-n1cnc(Cn2nc(-c3ccc(Cl)cc3)n(C[C@H](O)C(F)(F)F)c2=O)n1 [Example 195, 1-{2-[3-({3-(4-Chlorophenyl)-5-oxo-4-[(2S)-3,3,3-trifluoro-2-hydroxypropyl]-4,5-dihydro-1H-1,2,4-triazol-1-yl}methyl)-1H-1,2,4-triazol-1-yl]benzoyl}-L-prolinamide]
[1]
  pIC50: 5.62
[2]
  pIC50: 6.98
  ratio IC50 hV2/hV1a: 23.0

## NC(=O)[C@@H]1CC(F)(F)CN1C(=O)c1ccccc1-n1cnc(Cn2nc(-c3ccc(Cl)cc3)n(C[C@H](O)C(F)(F)F)c2=O)n1 [Example 197, 1-{2-[3-({3-(4-Chlorophenyl)-5-oxo-4-[(2S)-3,3,3-trifluoro-2-hydroxypropyl]-4,5-dihydro-1H-1,2,4-triazol-1-yl}methyl)-1H-1,2,4-triazol-1-yl]benzoyl}-4,4-difluoro-L-prolinamide]
[1]
  pIC50: 5.16
[2]
  pIC50: 7.31
  ratio IC50 hV2/hV1a: 140.4

## NC(=O)[C@H]1CC(F)(F)CN1C(=O)c1ccccc1-n1cnc(Cn2nc(-c3ccc(Cl)cc3)n(C[C@H](O)C(F)(F)F)c2=O)n1 [Example 198, 1-{2-[3-({3-(4-Chlorophenyl)-5-oxo-4-[(2S)-3,3,3-trifluoro-2-hydroxypropyl]-4,5-dihydro-1H-1,2,4-triazol-1-yl}methyl)-1H-1,2,4-triazol-1-yl]benzoyl}-4,4-difluoro-D-prolinamide]
[1]
  pIC50: 5.27
[2]
  pIC50: 7.66
  ratio IC50 hV2/hV1a: 245.5

## NC(=O)[C@@H]1CCN(C(=O)c2ccccc2-n2cnc(Cn3nc(-c4ccc(Cl)cc4)n(C[C@H](O)C(F)(F)F)c3=O)n2)C1 [Example 199, (3R)-1-{2-[3-({3-(4-Chlorophenyl)-5-oxo-4-[(2S)-3,3,3-trifluoro-2-hydroxypropyl]-4,5-dihydro-1H-1,2,4-triazol-1-yl}methyl)-1H-1,2,4-triazol-1-yl]benzoyl}pyrrolidine-3-carboxamide]
[1]
  pIC50: 5.62
[2]
  pIC50: 7.44
  ratio IC50 hV2/hV1a: 66.4

## NC(=O)[C@H]1CCN(C(=O)c2ccccc2-n2cnc(Cn3nc(-c4ccc(Cl)cc4)n(C[C@H](O)C(F)(F)F)c3=O)n2)C1 [Example 200, (3S)-1-{2-[3-({3-(4-Chlorophenyl)-5-oxo-4-[(2S)-3,3,3-trifluoro-2-hydroxypropyl]-4,5-dihydro-1H-1,2,4-triazol-1-yl}methyl)-1H-1,2,4-triazol-1-yl]benzoyl}pyrrolidine-3-carboxamide]
[1]
  pIC50: 5.76
[2]
  pIC50: 7.95
  ratio IC50 hV2/hV1a: 153.3

## CC1=NN=C(C)C1NC(=O)c1ccccc1-n1cnc(Cn2nc(-c3ccc(Cl)cc3)n(C[C@H](O)C(F)(F)F)c2=O)n1 [Example 201, 2-[3-({3-(4-Chlorophenyl)-5-oxo-4-[(2S)-3,3,3-trifluoro-2-hydroxypropyl]-4,5-dihydro-1H-1,2,4-triazol-1-yl}methyl)-1H-1,2,4-triazol-1-yl]-N-(3,5-dimethyl-4H-pyrazol-4-yl)benzamide]
[1]
  pIC50: 5.43
[2]
  pIC50: 8.92
  ratio IC50 hV2/hV1a: 3125.0

## O=C(NCc1cccc(F)c1F)c1ccccc1-n1cnc(Cn2nc(-c3ccc(Cl)cc3)n(C[C@H](O)C(F)(F)F)c2=O)n1 [Example 203, 2-[3-({3-(4-Chlorophenyl)-5-oxo-4-[(2S)-3,3,3-trifluoro-2-hydroxypropyl]-4,5-dihydro-1H-1,2,4-triazol-1-yl}methyl)-1H-1,2,4-triazol-1-yl]-N-(2,3-difluorobenzyl)benzamide]
[1]
  pIC50: 6.65
[2]
  pIC50: 8.08
  ratio IC50 hV2/hV1a: 26.9

## Nc1ccc(NC(=O)c2ccccc2-n2cnc(Cn3nc(-c4ccc(Cl)cc4)n(C[C@H](O)C(F)(F)F)c3=O)n2)cc1 [Example 205, N-(4-Aminophenyl)-2-[3-({3-(4-chlorophenyl)-5-oxo-4-[(2S)-3,3,3-trifluoro-2-hydroxypropyl]-4,5-dihydro-1H-1,2,4-triazol-1-yl}methyl)-1H-1,2,4-triazol-1-yl]benzamide]
[1]
  pIC50: 6.73
[2]
  pIC50: 9.24
  ratio IC50 hV2/hV1a: 321.7

## Cn1nccc1CNC(=O)c1ccccc1-n1cnc(Cn2nc(-c3ccc(Cl)cc3)n(C[C@H](O)C(F)(F)F)c2=O)n1 [Example 206, 2-[3-({3-(4-Chlorophenyl)-5-oxo-4-[(2S)-3,3,3-trifluoro-2-hydroxypropyl]-4,5-dihydro-1H-1,2,4-triazol-1-yl}methyl)-1H-1,2,4-triazol-1-yl]-N-[(1-methyl-1H-pyrazol-5-yl)methyl]benzamide]
[1]
  pIC50: 6.08
[2]
  pIC50: 8.84
  ratio IC50 hV2/hV1a: 575.9

## O=C(NCc1cc(F)ccc1F)c1ccccc1-n1cnc(Cn2nc(-c3ccc(Cl)cc3)n(C[C@H](O)C(F)(F)F)c2=O)n1 [Example 207, 2-[3-({3-(4-chlorophenyl)-5-oxo-4-[(2S)-3,3,3-trifluoro-2-hydroxypropyl]-4,5-dihydro-1H-1,2,4-triazol-1-yl}methyl)-1H-1,2,4-triazol-1-yl]-N-(2,5-difluorobenzyl)benzamide]
[1]
  pIC50: 6.52
[2]
  pIC50: 8.27
  ratio IC50 hV2/hV1a: 57.0
